Literature values in US20190358240A1, “HIV TREATMENT FORMULATION OF ATAZANAVIR AND COBICISTAT” (BRISTOL-MYERS SQUIBB COMPANY, priority 2013, published 2019).

Settings: human, in vivo

Q: Which results are given for `COC(=O)N[C@H](C(=O)N[C@@H](Cc1ccccc1)[C@@H](O)CN(Cc1ccc(-c2ccccn2)cc1)NC(=O)[C@@H](NC(=O)OC)C(C)(C)C)C(C)(C)C` [Atazanavir, methyl N-[(1S)-1-{[(2S,3S)-3-hydroxy-4-[(2S)-2-[(methoxycarbonyl)amino]-3,3-dimethyl-N′-{[4-(pyridin-2-yl)phenyl]methyl}butanehydrazido]-1-phenylbutan-2-yl]carbamoyl}-2,2-dimethylpropyl]carbamate]?
A: Accumulation at steady state: 2-3 fold; Time to steady state: 4 to 8 days; Tmax: ~2.5 h
